Results: PMC7024211, “Antifouling Napyradiomycins from Marine-Derived Actinomycetes Streptomyces aculeolatus” (Marine Drugs, 2020)
Values after ≈ are worked out from the molar mass of the structure shown.

Key:
[1] = tested on: M. hydrocarbonoclasticus; experiment: Bacterial growth inhibition assay (OD600nm); type: cell-based, Marinobacter hydrocarbonoclasticus; conditions: 31.25 µg/mL
Procedure: As a first screening approach, liquid cultures of M. hydrocarbonoclasticus, and C. marina in a 96-well format were analyzed for bacterial growth inhibition by percent decrease in OD600 after incubation with napyradiomycins (1–12) at 31.25 µg/mL.
(§1) Five marine bacterial species were used as models to assess antimicrofouling activity. The biofilm-forming marine bacteria Marinobacter hydrocarbonoclasticus DSM 8798 (ATCC 49840), Cobetia marina DSM 4741, Phaeobacter inhibens DSM 17,395, and Pseusooceanicola batsensis DSM 15,984 were obtained from DSMZ (Leibniz Institute DSMZ—German collection of Microorganisms and Cell Cultures) and Micrococcus luteus. Cultures were routinely grown in liquid marine broth (Carl Roth GmbH, Karlsruhe, Germany) with agitation (180 rpm) or on agar-supplemented marine broth, at 28 °C (M. hydrocarbonoclasticus and C. marina) or 30 °C (P. inhibens and P. batsensis). M. luteus was maintained in Brain Heart Infusion broth (BHI, Becton Dickinson, GmbH, Heidelberg, Germany) with agitation (180 rpm) or on agar-supplemented BHI, at 37 °C.
(§2) The antibacterial activity of the napyradiomycins (1–12) was assessed in 96-well polystyrene flat bottom microplates (Nunclon Delta Surface, Thermo Scientific, Roskilde, Denmark) following previously reported procedures. For initial screening, bacterial overnight cultures were diluted to an optical density (OD600nm) of 0.2 and incubated statically at 28 °C (M. hydrocarbonoclasticus, C. marina), 30 °C (P. inhibens, P. batsensis) or 37 °C (M. luteus) in a 96-well microplate in the presence or absence of 31.25 µg/mL of the napyradiomycins, solubilized in DMSO. After 24 h (M. hydrocarbonoclasticus, C. marina) or 48 h (P. batsensis, P. inhibens, M. luteus) incubation, the OD600nm was determined (Molecular Devices, Spectra Max 190). […] The percentage of growth inhibition was calculated as the amount of growth relative to that of the bacterial species without added compounds (with the same amount of DMSO added). CuSO4 (5 μM), a potent antifouling agent used in antifouling paints, was used as reference.
(§3) All assays were performed in triplicate, and results are representative of the average and standard error of the mean (SEM). Statistical analysis was performed in GraphPad Prism 8.0.2 (San Diego, CA, USA), using one-way ANOVA followed by a Dunnett’s multiple comparisons test against the control (species grown with the same amount of DMSO added).

[2] = tested on: C. marina; experiment: Bacterial growth inhibition assay (OD600nm); type: cell-based, Cobetia marina; conditions: 31.25 µg/mL
Source text: as §1
as §2, with “For initial screening, bacterial overnight cultures were diluted to an optical density (OD600nm) of 0.2 and incubated statically at 28 °C (M. hydrocarbonoclasticus, C. marina), 30 °C (P. inhibens, P. batsensis) or 37 °C (M. luteus) in a 96-well microplate in the presence or absence of 31.25 µg/mL of the napyradiomycins, solubilized in DMSO.” left out
as §3

[3] = tested on: C. marina; experiment: Biofilm inhibition assay (crystal violet); type: cell-based, Cobetia marina; conditions: 31.25 µg/mL
Procedure: (§4) In a 96-well plate, biofilm grown cultures of M. hydrocarbonoclasticus and C. marina were incubated with napyradiomycins (1–12) at a concentration of 31.25 µg/mL. After discarding the media, biofilm inhibition was determined from OD600 measurements of crystal violet stained cells resuspended from the plate bottom with acetic acid.
as §1
(§5) The antibiofilm activity of napyradiomycins (1–12) against the five marine bacterial species was assessed in 96-well polystyrene flat bottom microplates (Nunclon Delta Surface, Thermo Scientific, Roskilde, Denmark) as previously reported. For initial screening, bacterial overnight cultures were diluted to an optical density (OD600nm) value of 0.2 and incubated statically at 28 °C (M. hydrocarbonoclasticus, C. marina), 30 °C (P. inhibens, P. batsensis) or 37 °C (M. luteus) in the 96-well microplate in the presence or absence of 31.25 µg/mL of napyradiomycins, solubilized in DMSO. After 24 h (M. hydrocarbonoclasticus, C. marina) or 48 h (P. batsensis, P. inhibens, M. luteus) incubation, the OD600nm was determined. The planktonic cells and media were discarded, and the wells were washed twice with deionized water. The biofilm was fixed for 1 h at 60 °C and stained with crystal violet 0.06% for 10 min. The dye was discarded, and the wells were again washed twice with deionized water. The stained biofilm was solubilized with 30% acetic acid and the OD600nm was determined. […] The percentage of biofilm inhibition was calculated as the amount of biofilm relative to that of the bacterial species without added compounds (with the same amount of DMSO added). CuSO4 (5 μM), a potent antifouling agent used in antifouling paints, was used as reference.
(§6) All assays were performed in triplicate, and results are representative of the average and standard error of the mean (SEM). Statistical analysis was performed in GraphPad Prism 8.0.2, using one-way ANOVA followed by a Dunnett’s multiple comparisons test against the control (species grown with the same amount of DMSO added).

[4] = tested on: M. hydrocarbonoclasticus; experiment: Biofilm inhibition assay (crystal violet); type: cell-based, Marinobacter hydrocarbonoclasticus; conditions: Marinobacter nauticus; for inhibition at 31.25 µg/mL: read-out: % Biofilm Inhibition ± SEM M. hydrocarbonoclasticus
Procedure: as §4, §1, §5, §6

[5] = Mussel plantigrade larvae settlement, 15 h acute exposure assay; type: in vivo; conditions: Mytilus galloprovincialis (mussel, plantigrade larvae), in vivo, no mortality at highest tested concentration 12 µg/mL
Procedure: (§7) Mussel (M. galloprovincialis) adhesive larvae (plantigrades) were used to assess in vivo the antifouling activity of napyradiomycins (1–12) towards macrofouling. Juvenile mussel aggregates were collected at the intertidal rocky shore during low spring tides, at Memória beach, Matosinhos, Portugal (41°13′59″ N; 8°43′28″ W). At the laboratory, immediately before the bioassays, mussel plantigrade larvae were screened and isolated from the juvenile aggregates using a binocular microscope (Olympus SZX2-ILLT, Hamburg, Germany) and washed with filtered seawater to remove organic debris. Only competent plantigrade larvae (those showing foot exploratory behavior) were selected and used in the exposure bioassays following previously validated procedures. Plantigrades were exposed in 24-well polystyrene plates for 15 h in the darkness at 18 °C. DMSO was used as solvent for crude extracts, fractions and pure compounds stock and working solutions. Working solutions were prepared by successive dilutions of stock solutions in DMSO and then diluted in filtered seawater to obtain the test solutions. DMSO concentration in test solutions was always 0.1%. Four well replicates were used per condition with five larvae per well. Two negative controls, one with ultra-pure water and the other with DMSO 0.1% were included in all bioassays, as well as a positive control with 5 μM CuSO4 (a potent antifouling agent). Anti-settlement bioactivity was determined by the presence/absence of fixed byssal threads produced by each individual larvae for all the conditions tested. […] Chi-square Pearsons goodness-of-fit test was applied to data in order to determine EC50. Significance was considered at p < 0.01 for all analyses, and 95% lower and upper confidence limits [95% LCL; UCL] were presented. Therapeutic ratio (LC50/EC50) was used to evaluate the effectiveness vs. toxicity of compounds [19, 21].

[6] = tested on: M. galloprovincialis plantigrade larvae; experiment: as above; type: in vivo; conditions: 95% LCL, UCL in brackets; for EC50: Mytilus galloprovincialis, 15 h, read-out: EC50 [Conf. limits] larval settlement
Procedure: as §7

[7] = tested on: M. luteus; experiment: Biofilm inhibition assay (crystal violet); type: cell-based, Micrococcus luteus
Procedure: as §4, §1, §5, §6

[8] = tested on: M. luteus; experiment: Bacterial growth inhibition assay (OD600nm); type: cell-based, Micrococcus luteus
Source text: as §1
as §2, with “For initial screening, bacterial overnight cultures were diluted to an optical density (OD600nm) of 0.2 and incubated statically at 28 °C (M. hydrocarbonoclasticus, C. marina), 30 °C (P. inhibens, P. batsensis) or 37 °C (M. luteus) in a 96-well microplate in the presence or absence of 31.25 µg/mL of the napyradiomycins, solubilized in DMSO.” left out
as §3

[9] = tested on: P. inhibens; experiment: Biofilm inhibition assay (crystal violet); type: cell-based, Phaeobacter inhibens; conditions: 31.25 µg/mL
Procedure: as §4, §1, §5
All assays were performed in triplicate, and results are representative of the average and standard error of the mean (SEM). […]

[10] = tested on: P. batsensis; experiment: Biofilm inhibition assay (crystal violet); type: cell-based, Pseudooceanicola batsensis; conditions: Pseudooceanicola batsensis; 31.25 µg/mL; read-out: % Biofilm Inhibition ± SEM P. batsensis
Procedure: as §4, §1, §5, §6

[11] = tested on: Orcorhynchus mykiss; conditions: experimental data ref Tisler and Zagorc-Koncan, 2003; cited from earlier work
[12] = tested on: Daphnia magna; conditions: experimental data ref Tisler and Zagorc-Koncan, 2003; cited from earlier work
[13] = tested on: Scenedesmus quadricauda; conditions: experimental data ref Tisler and Zagorc-Koncan, 2003; cited from earlier work
[14] = tested on: Daphnia magna; conditions: experimental data ref Tisler and Zagorc-Koncan, 2003; cited from earlier work; remark: listed apart in the source
[15] = tested on: Oral rat/rabit; conditions: ref Acros Organics safety data sheet; cited from earlier work
[16] = cited from earlier work

## Cc1c(O)cc2c(c1O)C(=O)C1(Cl)CC(Cl)C(C)(C)OC1(CC1C(C)(O)CCC(Cl)C1(C)C)C2=O (stereo not drawn) [Napyradiomycin 10, napyradiomycin A80915C]
[1]
  % growth inhibition M. hydrocarbonoclasticus: did not inhibit growth
[2]
  % growth inhibition C. marina: did not inhibit growth
[3]
  % Biofilm Inhibition ± SEM C. marina: N.I.
[4]
  inhibition at 31.25 µg/mL: 25.1 ± 10.2%
[5]
  LC50 at 15 h: > 12 µg/mL
[6]
  EC50 [Conf. limits] larval settlement: 0.102 [0.072; 0.140] µg/mL
  EC50: 0.1 µg/mL (≈ 0.183 µM)

## C=C(C)C(O)CC/C(C)=C/C[C@@]12OC(C)(C)[C@H](Cl)C[C@]1(Cl)C(=O)c1c(O)cc(O)cc1C2=O (stereo partly drawn) [Napyradiomycin 4, napyradiomycin A2]
[7]; 0.98 µg/mL
  % inhibition of biofilm formation M. luteus: 93.8 ± 4.1%
[7]; Micrococcus luteus, 0.98 µg/mL, read-out: % inhibition of biofilm formation M. luteus
  inhibition at 0.98 µg/mL: > 90%
[7]; Micrococcus luteus, 1.95 µg/mL, read-out: % inhibition of biofilm formation M. luteus
  inhibition at 1.95 µg/mL: 91.7 ± 0.9%
[7]; Micrococcus luteus, 3.91 µg/mL, read-out: % inhibition of biofilm formation M. luteus
  inhibition at 3.91 µg/mL: 100 ± 0.4%
[7]; Micrococcus luteus, 7.81 µg/mL, read-out: % inhibition of biofilm formation M. luteus
  inhibition at 7.81 µg/mL: 86.7 ± 3%
[7]; Micrococcus luteus, 15.6 µg/mL, read-out: % inhibition of biofilm formation M. luteus
  inhibition at 15.6 µg/mL: 88.8 ± 4.2%
[7]; Micrococcus luteus, 31.25 µg/mL, read-out: % Biofilm Inhibition ± SEM M. luteus
  inhibition at 31.25 µg/mL: 97 ± 1.2%
[8]; Micrococcus luteus, 0.98 µg/mL
  inhibition at 0.98 µg/mL: 38.7 ± 1.9%
[8]; Micrococcus luteus, 1.95 µg/mL
  inhibition at 1.95 µg/mL: 51.7 ± 4.5%
[8]; Micrococcus luteus, 3.91 µg/mL
  inhibition at 3.91 µg/mL: 61.2 ± 3.7%
[8]; Micrococcus luteus, 7.81 µg/mL
  inhibition at 7.81 µg/mL: 53.3 ± 5.7%
[8]; Micrococcus luteus, 15.60 µg/mL
  inhibition at 15.6 µg/mL: 60.1 ± 8.5%
[8]; Micrococcus luteus, 31.25 µg/mL
  inhibition at 31.25 µg/mL: 72.5 ± 7.7%
[8]; all tested concentrations
  % growth inhibition M. luteus: approximately 50%
[3]
  % Biofilm Inhibition ± SEM C. marina: N.I.
[4]; 0.98 µg/mL, read-out: % inhibition of biofilm formation M. hydro.
  inhibition at 0.98 µg/mL: 56.1 ± 5.6%
[4]; 1.95 µg/mL, read-out: % inhibition of biofilm formation M. hydro.
  inhibition at 1.95 µg/mL: 78.1 ± 3%
[4]; 3.91 µg/mL, read-out: % inhibition of biofilm formation M. hydro.
  inhibition at 3.91 µg/mL: 84.5 ± 2%
[4]; 7.81 µg/mL, read-out: % inhibition of biofilm formation M. hydro.
  inhibition at 7.81 µg/mL: 67 ± 5.5%
[4]; 15.6 µg/mL, read-out: % inhibition of biofilm formation M. hydro.
  inhibition at 15.6 µg/mL: 82.3 ± 1.5%
[4]
  inhibition at 31.25 µg/mL: 56.9 ± 5.7%
[5]
  LC50 at 15 h: > 12 µg/mL
[6]
  EC50: 6.34 µg/mL (≈ 12.7 µM)
[9]
  % Biofilm Inhibition ± SEM P. inhibens: N.I.
[10]
  inhibition at 31.25 µg/mL: 13.4 ± 0.8%

## C=C1CCC(Cl)C(C)(C)C1C[C@@]12OC(C)(C)[C@H](Cl)C=C1C(=O)c1c(cc(O)c(C)c1O)C2=O (stereo partly drawn) [Napyradiomycin 12, 4-dehydro-4a-dechloro-napyradiomycin A80915A]
[1]
  % growth inhibition M. hydrocarbonoclasticus: did not inhibit growth
[2]
  % growth inhibition C. marina: did not inhibit growth
[3]
  % Biofilm Inhibition ± SEM C. marina: N.I.
[4]
  inhibition at 31.25 µg/mL: 33.7 ± 5.1%
[5]
  LC50 at 15 h: > 12 µg/mL
[6]
  EC50 [Conf. limits] larval settlement: 0.947 [0.586; 1.473] µg/mL
  EC50: 0.95 µg/mL (≈ 1.93 µM)

## [As] [Arsenic]
[11]
  Aquatic toxicity Fish Orcorhynchus mykiss 96 hour LC50: 15.3 µg/mL
[12]
  Aquatic toxicity Daphnia magna EC50 48 hour: 2.5 µg/mL
[13]
  Aquatic toxicity Alga Scenedesmus quadricauda 72 hour IC50: 34.7 µg/mL
[14]
  Chronic toxicity Daphnia magna 21 day NOEC: 1.85 mg/L
[15]
  Acute toxicity Oral rat/rabit LD50: 12 mg/kg
[16]
  ATE category: 2 (category 2, 5 < ATE ≤ 50 mg/Kg)

## [Cu] [Copper]
[11]
  Aquatic toxicity Fish Orcorhynchus mykiss 96 hour LC50: 0.48 µg/mL
[12]
  Aquatic toxicity Daphnia magna EC50 48 hour: 0.030 µg/mL
[13]
  Aquatic toxicity Alga Scenedesmus quadricauda 72 hour IC50: 0.18 µg/mL
[14]
  Chronic toxicity Daphnia magna 21 day NOEC: 0.015 mg/L
[15]
  Acute toxicity Oral rat/rabit LD50: 140 mg/kg
[16]
  ATE category: 3 (category 3, 50 < ATE ≤ 300 mg/Kg)
